Experiments:
[1] = test system: mHTT-mediated ferroptosis; experiment: mHTT-mediated ferroptosis (summary statement); format: cell-based; conditions: general statement
[2] = test system: HTTQ94 Tet-on HT-22 cells; experiment: Cell death assay, HTTQ94 Tet-on HT-22 cells treated with glutamate; format: cell-based, mouse; conditions: doxycycline 0.5 μg/ml and glutamate 10 mM, 20 h; for effect of inhibitor on HTTQ94-mediated ferroptosis upon glutamate induction: Ferr-1 2 μM, Zileuton 10 μM
Experimental: (G) Cell death assay in HTTQ94 Tet-on HT-22 cells. Cells were transfected with control siRNA (ctrl) or ALOX5 siRNA, followed by incubation with doxycycline (0.5 μg/ml) and glutamate (10 mM) for 16 h in the presence or absence of Ferr-1 (2 μM). Cell death were calculated from three replicates; Data shown in (A), (C), (E) and (G) are means±SD. P-values were derived from two-tailed unpaired t-test.
(E) Cell death assay. The HTTQ94 Tet-on HT-22 cells were treated with doxycycline (0.5 μg/ml) and glutamate (10 mM) in the presence or absence of Ferr-1(2 μM) or Zileuton (10 μM) for 20 h. […] Data shown in (B), (C), (D) and (E) are are means±SD. P-values were derived from two-tailed unpaired t-test.
Cells were plated at 20˜30% density one day prior to siRNAs transfection.
Cells were treated with ferroptosis inducer TBH or erastin or glutamate combined with other drugs or conditions. At indicated time points, cells were trypsinized and stained with trypan blue followed by counting with a hemocytometer using the cell number counter (Life technologies countess II). Living cells and dead cells were all counted, and cells stained blue were considered as dead cells.

[3] = test system: HTTQ94 Tet-on HT-22 cells; experiment: Cell death assay, HTTQ94 Tet-on HT-22 cells under ROS stress (TBH); format: cell-based, mouse; conditions: for effect of inhibitor on HTTQ94-mediated cell death upon ROS stress: then TBH 10 μM 8 h, Ferr-1 2 μM, Lipro-1 2 μM, DFO 100 μM, zVAD 10 μM, 3 MA 2 mM, Nec1 10 μM, Zileuton 10 μM, MK886 10 μM
Experimental: (A) Representative phase-contrast images of cell death from the HTTQ94 tet-on HT-22 cells. HTTQ94 Tet-on HT-22 cells were pre-incubated with doxycycline (0.5 μg/ml) for 4 h, and then treated with TBH (10 μM) for 8 h in the presence or absence of the ferroptosis inhibitors (ferrostatin-1, Ferr1, 2 μM; liproxstatin-1, Lipor1, 2 μM and DFO, 100 μM), apoptosis inhibitor (Z-VADFMK, zVAD, 10 μM), autophagy inhibitor (3-methylademine, 3 MA, 2 mM) or necroptosis inhibitor (necrostatin-1, Nec1, 10 μM). (B) Quantification of cell death, related to panel A. Three replicates for each group. […] Cell death were calculated from three replicates; Data shown in (B), (C), and (E) are means±SD. P-values were derived from two-tailed unpaired t-test. (***) P≤0.001, (**) P≤0.01, (*) P≤0.05, (n.s.) P >0.05.

[4] = test system: HT-22 HTTQ94 inducible cells; experiment: TfR1 immunofluorescence staining of ferroptotic cells; format: cell-based, mouse; conditions: doxycycline 1 μg/ml O/N
Experimental: FIGS. 13A-D. TfR1 staining is able to specifically recognize ferroptotic cells induced by HTTQ94 expression. (A) Limb clasping analysis in HD and HD/Alox5null mice (9-, 11- and 13-week-old). p<0.01, n=7. (B-D), TfR1 staining in HT-22 HTTQ94 inducible cells upon TBH treatment. HT-22 HTTQ94 inducible cells were treated 1 μg/ml doxycycline O/N to induce HTTQ94 expression, followed by treatment with 30 μM TBH for 6 h, and then cells were stained with TfR1 antibody. (B) Representative images of TfR1 staining. (C) Quantification of TfR1 staining. (D) Cell death assay, related to panel B. Data shown in (A) are means±SD. Data shown in (C) and (D) are means±SEM. P-values were derived from two-tailed unpaired t-test. (***) P<0.001, (**) P≤0.01, (*) P<0.05, (n.s.) P >0.05.
For cell line: HT-22 HTTQ94 inducible cells were fixed with 2% paraformaldehyde at RT for 20 min, and then incubated with blocking buffer (10% donkey serum, 0.3% Triton X-100 in PBS), followed by incubation with TfR1 antibody (1: 250, Thermo Fisher Scientific, Cat #13-6800) for 1 h, and then incubation with Alexa 568 conjugated secondary antibody (1:250, Thermo Fisher Scientific, Cat #A11004) for additional 1 h.

[5] = test system: HTTQ94 Tet-on HT-22 cells; experiment: Cell death assay, HTTQ94 Tet-on HT-22 cells treated with erastin; format: cell-based, mouse; conditions: doxycycline 0.5 μg/ml 4 h, then Erastin 1 μM 12 h; Ferr-1 2 μM, ROSI 10 μM, TRO 10 μM
Experimental: (B) HTTQ94 Tet-on HT-22 cells were pre-incubated with doxycycline (0.5 μg/ml) for 4 h, and then treated with Erastin (1 μM) for 12 h with/without Ferr-1 (2 μM). […] (E) Cell death assay. Control, HTTQ94 and HTTQ19 fragment Tet-on H1299 cells pre-incubated with doxycycline (0.5 μg/ml) for 16 h were treated with Erastin (30 μM) for 48 h with/without Ferr-1 (2 μM). Cell death were calculated from three replicates; Data shown in (B) and (E) are the means±SD. P-values were derived from two-tailed unpaired t-test. (***) P≤0.001, (**) P≤0.01, (*) P≤0.05, (n.s.) P >0.05.
(A) Cell death assay. HTTQ94 Tet-on HT-22 cells pre-incubated with doxycycline (0.5 μg/ml) for 4 h were treated with Erastin (1 μM) for 12 h in the presence or absence of ferrostatin-1 (Ferr-1, 2 μM) or ACSL4 inhibitors (rosiglitazone, ROSI, 10 μM; troglitazone, TRO, 10 μM). (B) Cell death assay. […] Cell death were calculated from three replicates. […]
Cells were treated with ferroptosis inducer TBH or erastin or glutamate combined with other drugs or conditions. […] Living cells and dead cells were all counted, and cells stained blue were considered as dead cells. Quantification of cell death was further confirmed using ToxiLight Non-destructive Cytotoxicity BioAssay Kit (LT07-117; Lonza). Data were collected using GloMax® Explorer Multimode Microplate Reader (Promega).

[6] = test system: cellular models of Huntington's disease (HD); conditions: Skouta et al. 2014; cited from earlier work

For `CC(c1cc2ccccc2s1)N(O)C(N)=O` (racemic) [Zileuton, (±)-1 (1-Benzo[b]thien-2-ylethyl)-1-hydroxyurea], the “block of mHTT-mediated ferroptosis” value [1] was “effectively blocked” and the “effect of inhibitor on HTTQ94-mediated ferroptosis upon glutamate induction” value [2] was “completely blocked”.

With `CC(=O)N(O)CCCCCNC(=O)CCC(=O)N(O)CCCCCNC(=O)CCC(=O)N(O)CCCCCN` [DFO] the “effect of inhibitor on HTTQ94-mediated cell death upon ROS stress” value ([3]; doxycycline 0.5 μg/ml 4 h) was “specifically blocked”.

For `Clc1cccc(CN=C2Nc3ccccc3NC23CCNCC3)c1` [Lipro-1, liproxstatin-1], the “effect of inhibitor on HTTQ94-mediated cell death upon ROS stress” value ([3]; doxycycline 0.5 μg/ml 4 h) was “specifically blocked”.

In the case of `CC(C)(C)OO` [TBH, tert-butyl hydroperoxide], the “cell death induced by inducer alone” value ([3]; TBH 10 μM 8 h, no HTTQ94 induction) is reported as “failed to induce any cell death”, the “cell death induced by inducer combined with HTTQ94 expression” value ([3]; doxycycline 0.5 μg/ml 4 h, TBH 10 μM 8 h) is reported as “high levels of cell death” and the “levels of anti-TfR1 antibody staining cells with inducer upon HTTQ94 induction” value ([4]; TBH 30 μM 6 h) is reported as “dramatically increased”.

With `CCOC(=O)c1ccc(NC2CCCCC2)c(N)c1` [ferrostatin-1] the “effect of inhibitor on HTTQ94-mediated cell death (ferroptosis) upon erastin” value [5] was “completely inhibited”, the “effect of inhibitor on HTTQ94-mediated ferroptosis upon glutamate induction” value [2] was “inhibited” and the “effect of inhibitor on HTTQ94-mediated cell death upon ROS stress” value ([3]; doxycycline 0.5 μg/ml 4 h) was “specifically blocked”. For the same compound, the “rescue of cell death” value [6] was “significantly rescued” and the “effect of inhibitor on levels of anti-TfR1 antibody staining” value ([4]; then TBH 30 μM 6 h, with Ferr-1) was “abolished”.

For `N[C@@H](CCC(=O)O)C(=O)O` [glutamate], the “cell death induced by inducer upon HTTQ94 expression” value [2] was “high levels of cell death”.

Source: patent US20240299347A1, “METHODS AND COMPOSITIONS TO TREAT HUNTINGTON'S DISEASE BY TARGETING ALOX5- MEDIATED FERROPTOSIS” (The Trustees of Columbia University in the City of New York, priority 2023, published 2024)
